The record followed here is the supplement of paper PMC11061612.

What all share (test): combination Emax (second highest fraction inhibited in the dose matrix, 72 h); higher = more inhibition; extreme values may be limits of the assay
In one test the test system is BE2-M17 (Neuroblastoma). The gist of the method:
(§1)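 Cell lines grown in DMEM/F12 or RPMI with 10% FBS were plated in 1536-well plates and held 24 hours at 37°C, 5% CO2 before 72 hours of exposure to two-drug dose matrices, with DMSO typically at 0.2%. CellTiter-Glo 2.0 luminescence gave viability, which was converted to inhibition. Vehicle wells were set to 0 and blank wells to 1. Combination Emax is the second-highest inhibition in the matrix, and Bliss excess is the observed combination effect minus the expected EA + EB − EA·EB, where EA and EB are the single-agent effects.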

The test system of another test is BPH-1 (Non-Cancerous). In a few lines:
as §1

Test [1] relates to CAL-33 (Oral Cavity Carcinoma). The gist of the method:
as §1

A further test concerns CAL-72 (Osteosarcoma). The gist of the method:
as §1

For test [2], the system named is ESS-1 (Other Solid Carcinomas). In a few lines:
as §1

The subject of test [3] is HH (T-Cell Non-Hodgkin's Lymphoma). The gist of the method: as §1
Test [4] relates to Hs-746T (Gastric Carcinoma). In a few lines: as §1
Test [5] concerns HuH-7 (Hepatocellular Carcinoma). The gist of the method: as §1
Test [6] has as its system KMRC-20 (Kidney Carcinoma). The gist of the method: as §1
The test system of test [7] is L-428 (Hodgkin's Lymphoma). In a few lines:
as §1

Test [8] concerns LCLC-97TM1 (Non-Small Cell Lung Carcinoma). In a few lines:
as §1

The test system of test [9] is LNZTA3WT4 (Low Grade Glioma). In a few lines: as §1
In the next test the test system is MPP-89 (Mesothelioma). In a few lines: as §1
Test [10] deals with NCI-H209 (Small Cell Lung Carcinoma). In a few lines: as §1
The test system of test [11] is SAS (Oral Cavity Carcinoma). In a few lines:
as §1

The test system of test [12] is SW1573 (Lung Adenocarcinoma). The gist of the method:
as §1

For test [13], the system named is SW1710 (Bladder Carcinoma). In a few lines: as §1
Test [14] has as its system TGBC1TKB (Biliary Tract Carcinoma). The gist of the method:
as §1

For test [15], the system named is WSU-NHL (B-Cell Non-Hodgkin's Lymphoma). In a few lines: as §1
The test system of test [16] is YAPC (Pancreatic Carcinoma). The gist of the method:
as §1

For `COc1cccc(OCCCN)c1-c1cc(Nc2cnc(C#N)cn2)n[nH]1` [Prexasertib] + C=CCn1c(=O)c2cnc(Nc3ccc(N4CCN(C)CC4)cc3)nc2n1-c1cccc(C(C)(C)O)n1 [AZD1775] (first compound max 1 µM, partner max 1 µM), the “combination Emax” value stood at 0.998 in the test with BE2-M17 (Neuroblastoma); 0.809 in the test on BPH-1 (Non-Cancerous); 0.916 in test [1]; 0.891 in the test on CAL-72 (Osteosarcoma); 1 in test [2]; 0.742 in test [3]. In addition, the “combination Emax” value turned out to be 0.78 in test [4]; 0.438 in test [5]; 0.885 in [6]; 0.955 in [7]; 0.951 in test [8]; 0.91 in test [9]. Also, the “combination Emax” value was 0.826 in the test on MPP-89 (Mesothelioma); 0.988 in test [10]; 0.969 in test [11]; 0.582 in [12]; 0.823 in test [13]; 0.446 in test [14]. Further, the results for the “combination Emax” value in test [15] and in test [16] were 1 and 0.669, respectively.
Regarding `CC(=O)c1c(C)c2cnc(Nc3ccc(N4CCNCC4)cn3)nc2n(C2CCCC2)c1=O` [Palbociclib] + Cn1cnc2c(F)c(Nc3ccc(Br)cc3Cl)c(C(=O)NOCCO)cc21 [Selumetinib] (first compound max 10 µM, 7x7, partner max 10 µM), the “combination Emax” value in the test with BE2-M17 (Neuroblastoma) is 0.606; with BPH-1 (Non-Cancerous), 0.518; in test [1], 0.382; in the test with CAL-72 (Osteosarcoma), 0.361; in [2], 0.283; in test [3], 0.407. For the same compound, the “combination Emax” value in test [4] turned out to be 0.49; in test [5] it was 0.344; in test [6] it was 0.158; in test [7], 0.395; in test [8], 0.64; in [9] it was 0.333. Further, the “combination Emax” value in the test with MPP-89 (Mesothelioma) is 0.14; in test [10], 0.594; in [11], 0.711; in [12], 0.164; in test [13], 0.339; in test [14], 0.167. Further, the “combination Emax” value is 0.886 in test [15] and 0.379 in test [16].
On to `Cc1c2c(nn1C)CSCc1cc(n(C)n1)CSc1cc(c3ccccc3c1)OCCCc1c(C(=O)O)n(C)c3c-2c(Cl)ccc13` [AZD5991] + Cn1cnc2c(F)c(Nc3ccc(Br)cc3Cl)c(C(=O)NOCCO)cc21 [Selumetinib] (first compound max 1 µM, 7x7, partner max 3 µM), for which the “combination Emax” value in the test on BE2-M17 (Neuroblastoma) is 0.956; with BPH-1 (Non-Cancerous), 0.604; in test [1], 0.411; in the test on CAL-72 (Osteosarcoma) it was 0.406; in test [2] it was 0.224; in test [3], 0.714. The “combination Emax” value was found to be 0.422 in test [4]; 0.301 in [5]; 0.196 in [6]; 0.0936 in test [7]; 0.694 in test [8]; 0.237 in test [9]. Moreover, the “combination Emax” value in the test with MPP-89 (Mesothelioma) came out at 0.193; in test [10], 0.402; in test [11] it was 0.44; in [12] it was 0.169; in test [13], 0.256; in test [14], 0.187. For the same compound, the “combination Emax” value in test [15] was found to be 0.934; in [16], 0.209.
Take `CC(=O)c1c(C)c2cnc(Nc3ccc(N4CCNCC4)cn3)nc2n(C2CCCC2)c1=O` [Palbociclib] + Cc1c2c(nn1C)CSCc1cc(n(C)n1)CSc1cc(c3ccccc3c1)OCCCc1c(C(=O)O)n(C)c3c-2c(Cl)ccc13 [AZD5991] (first compound max 10 µM, 7x7, partner max 1 µM): the “combination Emax” value in the test on BE2-M17 (Neuroblastoma) was found to be 0.409; with BPH-1 (Non-Cancerous), 0.281; in [1], 0.291; in the test on CAL-72 (Osteosarcoma) it was 0.441; in test [2], 0.266; in test [3], 0.911. The “combination Emax” value in test [4] came to 0.299; in [5] it was 0.215; in [6], 0.291; in test [7] it was 0.353; in test [8], 0.263; in test [9], 0.411. For the same compound, the “combination Emax” value in the test on MPP-89 (Mesothelioma) was 0.261; in test [10], 0.908; in [11], 0.538; in [12], 0.2; in test [13] it was 0.29; in test [14] it was 0.164. Moreover, the “combination Emax” value in test [15] was determined as 0.928; in test [16] it was 0.288.
As for `NC1(C(=O)N[C@@H](CCO)c2ccc(Cl)cc2)CCN(c2ncnc3[nH]ccc23)CC1` [Capivasertib] + CC(C)n1c(=O)n(C)c2cnc3cc(F)c(-c4ccc(OCCCN5CCCCC5)nc4)cc3c21 [AZD1390] (first compound max 10 µM, 7x7, partner max 0.3 µM), the “combination Emax” value in the test on BE2-M17 (Neuroblastoma) was found to be 0.177; with BPH-1 (Non-Cancerous) it was 0.459; in test [1], 0.478; in the test on CAL-72 (Osteosarcoma), 0.265; in test [2], 0.46; in test [3] it was 0.256. The “combination Emax” value in [4] was determined as 0.332; in test [5] it was 0.156; in test [6], 0.336; in [7], 0.162; in [8] it was 0.392; in test [9], 0.372. The “combination Emax” value stood at 0.439 in the test on MPP-89 (Mesothelioma); 0.17 in test [10]; 0.26 in test [11]; 0.235 in test [12]; 0.348 in [13]; 0.358 in test [14]. Also, the “combination Emax” value in test [15] stood at 0.882; in [16], 0.223.
Turning to `Cc1c2c(nn1C)CSCc1cc(n(C)n1)CSc1cc(c3ccccc3c1)OCCCc1c(C(=O)O)n(C)c3c-2c(Cl)ccc13` [AZD5991] + C[C@@H](Nc1cc(F)cc(F)c1)c1cc(C(=O)N(C)C)cc2c(=O)cc(N3CCOCC3)oc12 [AZD8186] (first compound max 1 µM, 7x7, partner max 3 µM), the “combination Emax” value in the test with BE2-M17 (Neuroblastoma) is 0.92; with BPH-1 (Non-Cancerous) it was 0.461; in test [1] it was 0.28; with CAL-72 (Osteosarcoma), 0.365; in [2] it was 0.372; in [3] it was 0.87. Besides, the “combination Emax” value in test [4] was 0.487; in test [5], 0.208; in test [6] it was 0.262; in test [7], 0.12; in [8], 0.221; in test [9], 0.232. For the same compound, the “combination Emax” value in the test with MPP-89 (Mesothelioma) was determined as 0.22; in test [10] it was 0.384; in [11] it was 0.321; in test [12], 0.288; in test [13] it was 0.307; in test [14], 0.377. The “combination Emax” value in test [15] was found to be 0.987; in test [16], 0.182.
For `CN(CCO)CC[C@H](CSc1ccccc1)Nc1ccc(S(=O)(=O)NC(=O)c2ccc(N3CCC([C@@H](O)c4ccccc4-c4ccc(Cl)cc4)CC3)cc2)cc1S(=O)(=O)C(F)(F)F` [AZD4320] + C1CN(CCC1(C(=O)N[C@@H](CCO)C2=CC=C(C=C2)Cl)N)C3=NC=NC4=C3C=CN4 [Capivasertib] (first compound max 1 µM, 7x7, partner max 3 µM), the “combination Emax” value amounted to 0.374 in the test with BE2-M17 (Neuroblastoma); 0.562 in the test with BPH-1 (Non-Cancerous); 0.363 in test [1]; 0.315 with CAL-72 (Osteosarcoma); 0.579 in [2]; 0.417 in test [3]. The “combination Emax” value was 0.46 in [4]; 0.197 in test [5]; 0.245 in [6]; 0.785 in [7]; 0.335 in test [8]; 0.218 in [9]. In addition, the “combination Emax” value with MPP-89 (Mesothelioma) came out at 0.198; in test [10], 1; in [11], 0.132; in [12], 0.296; in test [13], 0.302; in [14], 0.466. Besides, the “combination Emax” value turned out to be 1 in [15] and 0.0702 in test [16].
